For the data set, the system named is CCRIS mutagenicity, Ames/micronucleus/aberration tests. The experiment in a line: CCRIS mutagenicity studies.
[1] abbreviates: Test System: AMES SALMONELLA TYPHIMURIUM, Strain/Indicator: TA98, Metabolic Activation: RAT, LIVER, S-9, AROCLOR 1254, Method: STANDARD PLATE.
The mark [2] stands for this setting: Test System: AMES SALMONELLA TYPHIMURIUM, Strain/Indicator: TA100, Metabolic Activation: NONE, Method: STANDARD PLATE.
[3] abbreviates: Test System: AMES SALMONELLA TYPHIMURIUM, Strain/Indicator: TA100, Metabolic Activation: RAT, LIVER, S-9, AROCLOR 1254, Method: STANDARD PLATE.
The mark [4] stands for this setting: Test System: AMES SALMONELLA TYPHIMURIUM, Strain/Indicator: TA1537, Metabolic Activation: RAT, LIVER, S-9, AROCLOR 1254, Method: STANDARD PLATE.

The record followed here is PubChem BioAssay AID1259407 (Chemical Carcinogenesis Research Information System (CCRIS), 2018).

The source made the active and inactive calls. No rule for the calls is given here.

Turning to `COC(=O)c1ccc(C(=O)OC)cc1`, the mutagenic call by setting is: (End Point: IN VITRO CHROMOSOMAL ABERRATIONS, Test System: CHO-LB CELLS, Metabolic Activation: NONE) “inactive; negative”; (End Point: IN VITRO CHROMOSOMAL ABERRATIONS, Test System: CHO-LB CELLS, Metabolic Activation: RAT, LIVER, S-9, AROCLOR 1254) “inactive; negative”; (Test System: AMES SALMONELLA TYPHIMURIUM, Strain/Indicator: TA98, Metabolic Activation: HAMSTER, LIVER, S-9, AROCLOR 1254 (10%), Method: PREINCUBATION) “inactive; negative”; (Test System: AMES SALMONELLA TYPHIMURIUM, Strain/Indicator: TA98, Metabolic Activation: NONE, Method: PREINCUBATION) “inactive; negative”; (Test System: AMES SALMONELLA TYPHIMURIUM, Strain/Indicator: TA98, Metabolic Activation: NONE, Method: STANDARD PLATE) “inactive; negative”; (Test System: AMES SALMONELLA TYPHIMURIUM, Strain/Indicator: TA98, Metabolic Activation: RAT LIVER S-9, AROCLOR 1254, Method: STANDARD PLATE) “inactive; negative”. The mutagenic call runs as follows: (Test System: AMES SALMONELLA TYPHIMURIUM, Strain/Indicator: TA98, Metabolic Activation: RAT LIVER S-9, PHENOBARBITAL AND BETA-NAPHTHOFLAVONE, Method: PREINCUBATION) “inactive; negative”; (Test System: AMES SALMONELLA TYPHIMURIUM, Strain/Indicator: TA98, Metabolic Activation: RAT, LIVER, S-9, AROCLOR 1254 (10%), Method: PREINCUBATION) “inactive; negative”; under setting [1], “inactive; negative”; (Test System: AMES SALMONELLA TYPHIMURIUM, Strain/Indicator: TA98, Metabolic Activation: S-9, Method: STANDARD PLATE) “inactive; negative”; (Test System: AMES SALMONELLA TYPHIMURIUM, Strain/Indicator: TA100, Metabolic Activation: HAMSTER, LIVER, S-9, AROCLOR 1254 (10%), Method: PREINCUBATION) “inactive; negative”; (Test System: AMES SALMONELLA TYPHIMURIUM, Strain/Indicator: TA100, Metabolic Activation: NONE, Method: PREINCUBATION) “inactive; negative”. The mutagenic call under setting [2] is “inactive; negative”; the mutagenic call (Test System: AMES SALMONELLA TYPHIMURIUM, Strain/Indicator: TA100, Metabolic Activation: RAT LIVER S-9, AROCLOR 1254, Method: STANDARD PLATE) is “inactive; negative”; the mutagenic call (Test System: AMES SALMONELLA TYPHIMURIUM, Strain/Indicator: TA100, Metabolic Activation: RAT LIVER S-9, PHENOBARBITAL AND BETA-NAPHTHOFLAVONE, Method: PREINCUBATION) is “inactive; negative”; the mutagenic call (Test System: AMES SALMONELLA TYPHIMURIUM, Strain/Indicator: TA100, Metabolic Activation: RAT, LIVER, S-9, AROCLOR 1254 (10%), Method: PREINCUBATION) is “inactive; negative”; the mutagenic call under setting [3] was “inactive; negative”; the mutagenic call (Test System: AMES SALMONELLA TYPHIMURIUM, Strain/Indicator: TA100, Metabolic Activation: S-9, Method: STANDARD PLATE) was “inactive; negative”. In addition, the mutagenic call is “inactive; negative” (Test System: AMES SALMONELLA TYPHIMURIUM, Strain/Indicator: TA102, Metabolic Activation: NONE, Method: STANDARD PLATE); “inactive; negative” (Test System: AMES SALMONELLA TYPHIMURIUM, Strain/Indicator: TA102, Metabolic Activation: S-9, Method: STANDARD PLATE); “inactive; negative” (Test System: AMES SALMONELLA TYPHIMURIUM, Strain/Indicator: TA1535, Metabolic Activation: HAMSTER, LIVER, S-9, AROCLOR 1254 (10%), Method: PREINCUBATION); “inactive; negative” (Test System: AMES SALMONELLA TYPHIMURIUM, Strain/Indicator: TA1535, Metabolic Activation: NONE, Method: PREINCUBATION); “inactive; negative” (Test System: AMES SALMONELLA TYPHIMURIUM, Strain/Indicator: TA1535, Metabolic Activation: NONE, Method: STANDARD PLATE); “inactive; negative” (Test System: AMES SALMONELLA TYPHIMURIUM, Strain/Indicator: TA1535, Metabolic Activation: RAT LIVER S-9, AROCLOR 1254, Method: STANDARD PLATE). Further, the mutagenic call by setting is: (Test System: AMES SALMONELLA TYPHIMURIUM, Strain/Indicator: TA1535, Metabolic Activation: RAT LIVER S-9, PHENOBARBITAL AND BETA-NAPHTHOFLAVONE, Method: PREINCUBATION) “inactive; negative”; (Test System: AMES SALMONELLA TYPHIMURIUM, Strain/Indicator: TA1535, Metabolic Activation: RAT, LIVER, S-9, AROCLOR 1254 (10%), Method: PREINCUBATION) “inactive; negative”; (Test System: AMES SALMONELLA TYPHIMURIUM, Strain/Indicator: TA1535, Metabolic Activation: RAT, LIVER, S-9, AROCLOR 1254, Method: STANDARD PLATE) “inactive; negative”; (Test System: AMES SALMONELLA TYPHIMURIUM, Strain/Indicator: TA1535, Metabolic Activation: S-9, Method: STANDARD PLATE) “inactive; negative”; (Test System: AMES SALMONELLA TYPHIMURIUM, Strain/Indicator: TA1537, Metabolic Activation: HAMSTER, LIVER, S-9, AROCLOR 1254 (10%), Method: PREINCUBATION) “inactive; negative”; (Test System: AMES SALMONELLA TYPHIMURIUM, Strain/Indicator: TA1537, Metabolic Activation: NONE, Method: PREINCUBATION) “inactive; negative”. Also, the mutagenic call is, setting by setting: (Test System: AMES SALMONELLA TYPHIMURIUM, Strain/Indicator: TA1537, Metabolic Activation: NONE, Method: STANDARD PLATE) “inactive; negative”; (Test System: AMES SALMONELLA TYPHIMURIUM, Strain/Indicator: TA1537, Metabolic Activation: RAT LIVER S-9, AROCLOR 1254, Method: STANDARD PLATE) “inactive; negative”; (Test System: AMES SALMONELLA TYPHIMURIUM, Strain/Indicator: TA1537, Metabolic Activation: RAT LIVER S-9, PHENOBARBITAL AND BETA-NAPHTHOFLAVONE, Method: PREINCUBATION) “inactive; negative”; (Test System: AMES SALMONELLA TYPHIMURIUM, Strain/Indicator: TA1537, Metabolic Activation: RAT, LIVER, S-9, AROCLOR 1254 (10%), Method: PREINCUBATION) “inactive; negative”; under setting [4], “inactive; negative”; (Test System: AMES SALMONELLA TYPHIMURIUM, Strain/Indicator: TA1537, Metabolic Activation: S-9, Method: STANDARD PLATE) “inactive; negative”. The mutagenic call runs as follows: (Test System: AMES SALMONELLA TYPHIMURIUM, Strain/Indicator: TA1538, Metabolic Activation: NONE, Method: PREINCUBATION) “inactive; negative”; (Test System: AMES SALMONELLA TYPHIMURIUM, Strain/Indicator: TA1538, Metabolic Activation: NONE, Method: STANDARD PLATE) “inactive; negative”; (Test System: AMES SALMONELLA TYPHIMURIUM, Strain/Indicator: TA1538, Metabolic Activation: RAT LIVER S-9, AROCLOR 1254, Method: STANDARD PLATE) “inactive; negative”; (Test System: AMES SALMONELLA TYPHIMURIUM, Strain/Indicator: TA1538, Metabolic Activation: RAT LIVER S-9, PHENOBARBITAL AND BETA-NAPHTHOFLAVONE, Method: PREINCUBATION) “inactive; negative”; (Test System: AMES SALMONELLA TYPHIMURIUM, Strain/Indicator: TA1538, Metabolic Activation: RAT, LIVER, S-9, AROCLOR 1254, Method: STANDARD PLATE) “inactive; negative”; (Test System: AMES SALMONELLA TYPHIMURIUM, Strain/Indicator: TA1538, Metabolic Activation: S-9, Method: STANDARD PLATE) “inactive; negative”. For the same compound, the mutagenic call is “inactive; negative” (Test System: E.COLI, Strain/Indicator: WP2UVRA, Metabolic Activation: NONE, Method: PREINCUBATION); “inactive; negative” (Test System: E.COLI, Strain/Indicator: WP2UVRA, Metabolic Activation: RAT LIVER S-9, PHENOBARBITAL AND BETA-NAPHTHOFLAVONE, Method: PREINCUBATION); “inactive; negative” (Test System: UDS HUMAN HELA CELLS, Strain/Indicator: THYMIDINE INCORPORATION, Metabolic Activation: NONE, Method: LIQUID SCINTILLATION COUNTING).

Consider `Nc1cc2ccccc2cc1N`, for which the mutagenic call was “active; positive” (Test System: AMES SALMONELLA TYPHIMURIUM, Strain/Indicator: TA98, Metabolic Activation: RAT LIVER CYTOSOL, AROCLOR 1254, Method: STANDARD PLATE) and “active; positive” (Test System: AMES SALMONELLA TYPHIMURIUM, Strain/Indicator: TA98, Metabolic Activation: RAT LIVER MICROSOMES, AROCLOR 1254, Method: STANDARD PLATE).

Take `Cc1ccc(C(=O)O[C@@H](C(=O)O)[C@@H](OC(=O)c2ccc(C)cc2)C(=O)O)cc1` (tested in a mixture with another compound): the mutagenic call by setting is: under setting [1], “active; positive”; under setting [2], “inactive; negative”; under setting [3], “active; positive”; under setting [4], “active; positive”.
